Series [1] deals with mu receptor-G protein interaction (Homo sapiens, UniProt P35372). The series is described as follows: BRET mu-G protein interaction assay (membranes of SH-SY5Y cells, mu-RLuc/Gβ1-RGFP). For orientation: Bioluminescence resonance energy transfer reports proximity on the nanometre scale.
Protocol: (§1) SH-SY5Y cells stably co-expressing the fusoproteins mu-RLuc and Gβ1-RGFP or mu-RLuc and β-arrestin 2-RGFP were grown in DMEM/F12 (1:1) medium supplemented with 10% FBS, 2 mM L-Glutamine, 100 μg/mL hygromycin B, 400 μg/mL G418, 100 units/mL penicillin G, 100 μg/mL streptomycin and 1 μg/mL Fungizone at 37°C in a humidified atmosphere with of 5% CO2.
Total protein in membrane preparations was determined by colorimetric method with the Quantum Protein-BCA kit (EuroClone, Pero (MI), IT) and measured using the multiplate reader Victor Nivo (PerkinElmer, Walthman, MA, United States). White opaque 96 wells microplates (PerkinElmer, Walthman, MA, United States) were used to carry out BRET assays. Cell membranes were thawed and resuspended in PBS supplemented with 0.02% BSA before the assay, and an amount of 5 μg of total protein was dispensed in each 96 well. All experiments were carried out at room temperature.
(§2) In agonism experiments, ligands were added and incubated for 5 min before microplate reading. […] BRET ratios were computed as follow: RGFPCPS/RLucCPSligand−RGFPCPS/RLucCPSvehicle
(§3) Concentration-response curves to agonists were fitted to the four-parameter logistic non-linear regression model as follows: Effect=Basal+Emax−Basal/1+10^LogEC50−Logligand×HillSlope
In another series the target is T1, human mu receptor (Homo sapiens, UniProt P35372).
T1 construct: expressed in transfected cells; host or cells: CHO cells stably co-expressing Gαqi5
The series is described as follows: Calcium mobilization assay, CHO mu cells expressing Gαqi5. The class given is cell-based. As to conditions: for mu α±SEM: intrinsic activity, Emax ratio to standard agonist EM-2, inactive = inactive up to 10 µM.

Series [2] in a line: Enzymatic degradation in rat brain homogenate. The class given is in vitro ADME. To be noted: 37°C; for 100 x k, rate constant of degradation: up to 60 min; for half-life at 0.25 mM: rat, pH 7.4, rat brain homogenate, read-out: t1/2, degradation half-life. The method, then: Enzymatic degradation of EM-2 and the analogs was performed measuring their hydrolysis rates in the presence of rat brain homogenate. The homogenate was prepared prior to the experiment. Briefly, rat brains were homogenized in 20 volumes of Tris–HCl (50 mM, pH 7.4) using a Polytron and the obtained aliquots were stored at −80°C. In the experiment, aliquotes of brain homogenate (100 μL, 10 mg protein/mL) were incubated with 100 µL of a peptide (0.5 mM) over 0, 7.5; 15, 22.5; 30, and 60 min at 37°C, in a final volume of 200 µL. After the incubation the degradation reaction was stopped by placing the tube on ice and acidifying the content with 20 µL of HCl (1 M). The aliquots were centrifuged at 20,000 g for 10 min at 4°C. The supernatants were collected and filtered using Millex-GV syringe filters (Millipore). Then the analysis by HPLC on a Vydac C18 column (5 μm, 4.6 × 250 mm), using the solvent system of 0.1% TFA in water (A) and 80% acetonitrile in water containing 0.1% TFA (B) and a linear gradient of 0%–100% B over 25 min, was performed. Three independent experiments for each assay were carried out in duplicate. The rate constants of degradation (k) were obtained by the least square linear regression analysis of logarithmic peak areas [ln (A/AD)], where A—amount of remained peptide, AD—initial amount of peptide versus time. Degradation half-lives (t1/2) were calculated from the rate constants as ln2/k.

A short description of series [3]: n-Octanol/water partition coefficient (log P). It counts as physicochemical. To be noted: n-octanol / 0.05 M HEPES buffer in 0.1 M NaCl, pH 7.4. How it is done: Determination of log P was performed according to the method described by ([Liu et al., 2006]). Peptides were dissolved in 0.05 M HEPES buffer in 0.1 M NaCl, pH 7.4, then an equal volume of n-octanol was added and mixtures were vortexed for 2 min. Samples were centrifuged at 4,000 rpm for 1 min. After separation, aqueous and octanol phases were used to quantify peptide content by RP-HPLC.
Octanol phase was lyophilized and reconstituted in 80% acetonitrile in water containing 0.1% TFA before RP-HPLC. All n-octanol/buffer distribution studies were performed in triplicate.

For a further series, the target named is T2, human kappa receptor (Homo sapiens, UniProt P41145).
T2 construct: expressed in transfected cells; host or cells: CHO cells stably co-expressing Gαqi5
T2 sequence (P41145 whole entry): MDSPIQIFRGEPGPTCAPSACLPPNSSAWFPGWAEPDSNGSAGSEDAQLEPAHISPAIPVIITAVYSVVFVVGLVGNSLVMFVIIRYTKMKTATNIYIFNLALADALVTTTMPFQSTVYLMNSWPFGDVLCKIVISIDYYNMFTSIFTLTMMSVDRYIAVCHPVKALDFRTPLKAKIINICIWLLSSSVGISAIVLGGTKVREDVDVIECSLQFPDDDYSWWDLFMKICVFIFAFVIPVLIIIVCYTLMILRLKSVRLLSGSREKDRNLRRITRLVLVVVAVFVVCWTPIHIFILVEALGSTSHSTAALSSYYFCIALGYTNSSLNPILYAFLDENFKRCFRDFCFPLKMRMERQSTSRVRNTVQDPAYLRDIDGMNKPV
Kind of series: Calcium mobilization assay, CHO kappa cells expressing Gαqi5. It counts as cell-based. To be noted: inactive = inactive up to 10 µM; for Kappa pEC50 (CL95%): calcium mobilization; for Kappa α± SEM: intrinsic activity, Emax ratio to standard agonist dynorphin A. (In general: Calcium flux is commonly read through the fluorescence of an indicator in the cells.)

Series [4] addresses T3, human recombinant mu opioid receptor (Homo sapiens, UniProt P35372).
T3 construct: purchased; host or cells: CHO cells (membranes)
Kind of series: Radioligand binding, [3H]DAMGO displacement, CHO cell membranes.

Series [5] concerns the target T4, mu receptor-β-arrestin 2 interaction (Homo sapiens, UniProt P35372). Kind of series: cell-based. Set-up: expressed in transfected cells. As to conditions: read-out: pKb (CL95%) (converted). How it is done: In antagonism experiments, a 10 min preincubation with vehicle or fixed concentrations of ligand preceded the injection of increasing concentrations of EM-2.
Antagonist potencies (pKb) were computed applying the following equation: pKb = (log (CR − 1)) − log [Anta] with CR as the ratio between agonist potency (molar) in the presence and absence of antagonist and [Anta] is the molar concentration of antagonist. pKb represents the concentration of antagonist that occupies half of the receptor population at equilibrium, expressed in molar units.

Series [6] deals with T5, human recombinant kappa opioid receptor (Homo sapiens, UniProt P41145).
T5 construct: purchased; host or cells: CHO cells (membranes)
T5 sequence (P41145 whole entry): as above
The series is described as follows: Radioligand binding, [3H]U-69593 displacement, CHO cell membranes.

The target in series [7] is T6, delta-opioid receptor (Homo sapiens, UniProt P41143). The series is described as follows: Calcium mobilization assay, CHO delta cells expressing GαqG66Di5. The class given is cell-based. Set-up: expressed in transfected cells; host or cells: CHO cells co-expressing GαqG66Di5. To be noted: for Delta pEC50 (CL95%): calcium mobilization; for Delta pEC50 (CL95%) / Delta α± SEM: inactive = inactive up to 10 µM; for Delta α± SEM: intrinsic activity, Emax ratio to standard agonist DPDPE.
T6 sequence (P41143 whole entry): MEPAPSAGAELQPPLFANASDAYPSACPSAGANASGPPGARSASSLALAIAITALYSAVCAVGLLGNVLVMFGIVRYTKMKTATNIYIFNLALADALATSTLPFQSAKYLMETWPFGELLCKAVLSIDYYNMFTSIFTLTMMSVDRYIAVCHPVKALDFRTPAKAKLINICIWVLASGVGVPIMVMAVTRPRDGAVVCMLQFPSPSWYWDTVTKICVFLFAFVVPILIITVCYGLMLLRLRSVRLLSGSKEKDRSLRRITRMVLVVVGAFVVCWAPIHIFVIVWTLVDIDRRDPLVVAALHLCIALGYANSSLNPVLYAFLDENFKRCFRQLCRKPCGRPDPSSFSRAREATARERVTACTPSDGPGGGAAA

Series [8] addresses T4, mu receptor-β-arrestin 2 interaction. Kind of series: BRET mu-β-arrestin 2 interaction assay (living SH-SY5Y cells, mu-RLuc/β-arrestin 2-RGFP), agonism. As to conditions: for β-Arrestin 2 pEC50 (CL95%): BRET mu-β-arrestin 2, Inactive: Emax < 0.10, analog 6 obtained by forcing the Emax to 1.
Protocol: as §1
Mu- β-arrestin 2 interaction—Living SH-SY5Y cells expressing mu-RLuc and β-arrestin 2-RGFP were seeded at a cell density of 100,000 cells/well 24 h prior to the test. On the day of the experiment, medium was discarded, and cells were washed with PBS supplemented with 0.5 mM MgCl2, 0.9 mM CaCl2. Cells were subsequently incubated with 2 μM Prolume Purple Coelenterazine (NanoLight Technology, White Mountain, AZ; United States) for 10 min before bioluminescence reading.
as §2, §3
Series [9] has as its target T6, delta-opioid receptor. The series is described as follows: Radioligand binding, [3H]deltorphin-2 displacement, CHO cell membranes. Set-up: purchased; host or cells: CHO cells (membranes).
Another series has as its system mu receptor. Kind of series: Bias factor, mu-G protein vs mu-β-arrestin 2 (BRET), EM-2 as standard ligand. To be noted: log10 units, towards G protein.
For series [10] the following is noted: ref Bergese et al., 2019, cited from earlier work.

Consider 6 molecules from paper PMC9998502, “Functional selectivity of EM-2 analogs at the mu-opioid receptor” (Frontiers in Pharmacology, 2023).

The EC50 is the concentration that produces a half-maximal response. As a reminder, the logD is lipophilicity at a set pH, counting ionised and neutral species. For orientation: Ki means a measure of affinity in units of concentration, obtained from inhibition or displacement.

The structures appear in SMILES notation. Non-standard residues stand in square brackets, D forms with d. Residues, ends and D or L forms follow the SMILES beside them. Dmt = Cc1cc(O)cc(C)c1C[C@H](N)C(=O)O; d(β3hA) = C[C@@H](N)CC(=O)O

T1 sequence (P35372 whole entry): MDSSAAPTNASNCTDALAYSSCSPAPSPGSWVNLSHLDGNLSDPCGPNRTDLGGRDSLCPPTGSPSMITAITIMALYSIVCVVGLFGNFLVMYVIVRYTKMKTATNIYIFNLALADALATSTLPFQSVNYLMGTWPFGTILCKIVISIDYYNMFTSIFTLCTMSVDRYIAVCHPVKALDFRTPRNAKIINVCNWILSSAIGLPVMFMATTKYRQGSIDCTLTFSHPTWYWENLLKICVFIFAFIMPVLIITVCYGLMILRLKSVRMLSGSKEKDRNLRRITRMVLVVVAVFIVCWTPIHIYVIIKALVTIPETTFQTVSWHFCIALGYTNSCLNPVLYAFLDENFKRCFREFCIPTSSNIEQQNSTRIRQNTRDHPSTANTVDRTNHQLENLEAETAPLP
T4 sequence (P35372 whole entry): as above
T3 sequence (P35372 whole entry): as above
Chain of mu receptor-G protein interaction (P62871 whole entry): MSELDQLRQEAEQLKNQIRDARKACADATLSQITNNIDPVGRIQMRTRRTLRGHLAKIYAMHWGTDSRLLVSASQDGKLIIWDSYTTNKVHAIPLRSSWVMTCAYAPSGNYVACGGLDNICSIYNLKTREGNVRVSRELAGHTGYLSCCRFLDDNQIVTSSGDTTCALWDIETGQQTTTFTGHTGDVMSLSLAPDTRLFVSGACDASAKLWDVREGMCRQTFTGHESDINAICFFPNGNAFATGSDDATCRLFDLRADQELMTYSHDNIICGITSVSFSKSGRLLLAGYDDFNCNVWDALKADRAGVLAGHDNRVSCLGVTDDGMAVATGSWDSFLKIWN
Chain of mu receptor-G protein interaction (P35372 whole entry): as the sequence (P35372 whole entry) above

For the molecule `NC(=O)[C@H](Cc1ccccc1)NC(=O)[C@H](Cc1ccccc1)NC(=O)[C@H]1CCCCN1C(=O)[C@@H](N)Cc1ccc(O)cc1` [analog 2, Tyr-(R)-Pip-Phe-Phe-NH2], the EC50 in series [1] is 38 nM. For the same molecule, at human mu receptor, the EC50 is 58.9 nM and the “mu α±SEM” value was determined as 0.64 ± 0.04. Further, the “100 x k, rate constant of degradation” value in series [2] amounted to 0.57 ± 0.08 per min. For the same molecule, the half-life at 0.25 mM in series [2] (ln2/k) worked out at 2.02 ± 0.0517 h. In [3], this molecule registered a logD of 2.3. Also, on human kappa receptor, the “Kappa pEC50 (CL95%)” value is “inactive” and the “Kappa α± SEM” value is “inactive”. In series [4], the Ki was found to be 17.7 ± 1.14 nM. Besides, the Kb in series [5] was 170 nM. For the same molecule, the Ki in [6] was greater than 1000 nM. At delta-opioid receptor [7], the “Delta pEC50 (CL95%)” value was “inactive” and the “Delta α± SEM” value is “inactive”. In addition, the “β-Arrestin 2 pEC50 (CL95%)” value in series [8] is listed as “Inactive”. This molecule displayed a Ki on delta-opioid receptor [9] of 682 ± 33 nM.
As for `Cc1cc(O)cc(C)c1C[C@H](N)C(=O)N1CCCC[C@@H]1C(=O)N[C@@H](Cc1ccccc1)C(=O)N[C@@H](Cc1ccccc1)C(N)=O` [analog 3, Dmt-(R)-Pip-Phe-Phe-NH2], the figures for the EC50 (in series [1]; on human mu receptor; on delta-opioid receptor [7]) were 1.91 nM, 1.51 nM and 148 nM, respectively. Moreover, at human mu receptor, the “mu α±SEM” value is reported as 0.70 ± 0.03. Besides, the “100 x k, rate constant of degradation” value in [2] came to 0.73 ± 0.07 per min. Also, in series [2] (ln2/k), the half-life at 0.25 mM stood at 1.57 ± 0.0467 h. For the same molecule, in [3], the logD turned out to be 2.49. Moreover, on human kappa receptor, the “Kappa pEC50 (CL95%)” value was “inactive”. Further, at human kappa receptor, the “Kappa α± SEM” value was “inactive”. In addition, the Ki amounted to 3.92 ± 0.5 nM in [4], 72 ± 6 nM in [6] and 37 ± 5 nM on delta-opioid receptor [9]. For the same molecule, the Kb in series [5] is 0.0794 nM. The “Delta α± SEM” value at delta-opioid receptor [7] came to 0.56 ± 0.05. The “β-Arrestin 2 pEC50 (CL95%)” value in [8] is on record as “Inactive”.
`Cc1cc(O)cc(C)c1C[C@H](N)C(=O)N[C@H](C)CC(=O)N[C@@H](Cc1ccccc1)C(=O)N[C@@H](Cc1ccccc1)C(N)=O` [analog 9, Dmt-(R)-β ^ 3 -Ala-Phe-Phe-NH2] (H-[Dmt][d(β3hA)]FF-NH2; N-terminus assumed): the concentration for a half-maximal effect (EC50) in series [1] was 0.724 nM; at human mu receptor it was 0.457 nM; in series [8], 2.14 nM. Besides, the “mu α±SEM” value at human mu receptor amounted to 1.00 ± 0.05. For the same molecule, the “100 x k, rate constant of degradation” value in [2] is given as 1.90 ± 0.04 per min. Further, the half-life at 0.25 mM in series [2] (ln2/k) was found to be 0.605 ± 0.0467 h. The logD in series [3] was 2.09. In addition, the “Kappa pEC50 (CL95%)” value on human kappa receptor is “inactive”. Besides, the “Kappa α± SEM” value on human kappa receptor was “inactive”. The inhibition constant (Ki) in series [4] came to 0.14 ± 0.07 nM; in series [6] it was 890 ± 42 nM; at delta-opioid receptor [9] it was 286 ± 18 nM. In addition, the “Delta pEC50 (CL95%)” value at delta-opioid receptor [7] is “inactive”. Also, the “Delta α± SEM” value on delta-opioid receptor [7] was “inactive”. Also, the “Bias factor (CL95%)” value with mu receptor was 0.27 (0.16–0.38).
In turn, `NC(=O)[C@H](Cc1ccccc1)NC(=O)[C@@H](CNC(=O)[C@@H]1CCCN1C(=O)[C@@H](N)Cc1ccc(O)cc1)Cc1cccc2ccccc12` [analog 10, Tyr-Pro-(R)-β ^ 2 -1-Nal-Phe-NH2] had an EC50 in series [1] of 105 nM. For the same molecule, the “mu α±SEM” value on human mu receptor turned out to be 0.25 ± 0.06. Also, in series [2] (ln2/k), the “t1/2, degradation half-life” value came out at 2.805 ± 0.0917 h and the half-life at 0.25 mM came to 2.8 h. In series [2], the “100 x k, rate constant of degradation” value is listed as 0.41 ± 0.02 per min. In [3], this molecule showed a logD of 2.5. For the same molecule, at human kappa receptor, the “Kappa pEC50 (CL95%)” value is “inactive” and the “Kappa α± SEM” value was “inactive”. Further, in series [5], the Kb was 631 nM. Moreover, in series [6], the Ki was greater than 1000 nM. On delta-opioid receptor [7], the “Delta pEC50 (CL95%)” value was “inactive” and the “Delta α± SEM” value is “inactive”. Also, the “β-Arrestin 2 pEC50 (CL95%)” value in [8] is given as “Inactive”. The inhibition constant (Ki) on delta-opioid receptor [9] is greater than 1000 nM.
On to `Cc1cc(O)cc(C)c1C[C@H](N)C(=O)N1CCC[C@H]1C(=O)NC[C@@H](Cc1cccc2ccccc12)C(=O)N[C@@H](Cc1ccccc1)C(N)=O` [analog 11, Dmt-Pro-(R)-β ^ 2 -1-Nal-Phe-NH2], for which, in [1], the response was half-maximal at 4.9 nM (EC50). Also, at human mu receptor, the EC50 is 9.77 nM and the “mu α±SEM” value is recorded as 0.57 ± 0.05. The “100 x k, rate constant of degradation” value in [2] came out at 0.56 ± 0.02 per min. Moreover, in series [2] (ln2/k), the half-life at 0.25 mM was found to be 2.05 ± 0.0983 h. Besides, the logD in [3] stood at 2.71. For the same molecule, at human kappa receptor, the “Kappa pEC50 (CL95%)” value is “inactive” and the “Kappa α± SEM” value was “inactive”. Further, the Kb in series [5] was 0.398 nM. Besides, the Ki in series [6] was greater than 1000 nM. Besides, on delta-opioid receptor [7], the “Delta pEC50 (CL95%)” value is “inactive” and the “Delta α± SEM” value was “inactive”. Moreover, the “β-Arrestin 2 pEC50 (CL95%)” value in series [8] is on record as “Inactive”.
As for `COc1ccsc1CNCC[C@@]1(c2ccccn2)CCOC2(CCCC2)C1` [oliceridine, [(3-methoxythiophen-2-yl)methyl]({2-[(9R)-9-(pyridin-2-yl)-6-oxaspiro-[4.5]decan-9-yl]ethyl})amine], the “patients with lack of efficacy” value in [10] (moderate to severe acute pain in adults) is given as “less than 5%”. Besides, the “patients who experienced some adverse effects (vomiting, nausea, headache, or constipation)” value in [10] is reported as 64%.
